According to US8816121B2, “GLP-1 receptor stabilizers and modulators” (Receptos, Inc., priority 2010, dated 2014):

How the values were obtained:
GLP-1R [1] = target: T1, GLP-1R (Homo sapiens, UniProt P43220); assay: GLP-1 PAM EC20 assay: dosing compound in the presence of fixed GLP-1 (9-36), direct cAMP response; format: cell-based; details: compound dose response in presence of EC20 GLP-1 (9-36); for EC50: GLP-1R CRE-bla CHO-K1 cells; for EC20 GLP-1 (9-36) PAM max cAMP: total cAMP from standard curve
T1 construct: host or cells: CRE-bla CHO-K1
Protocol: GLP-1 PAM EC20 Assay: Dosing Compound in the Presence of Fixed GLP-1 (9-36)-Direct cAMP Response
GLP-1R CRE-bla CHO-K1 cells were seeded into 384-well white flat bottom plates at 10,000 cells/well/20 μL culture media (same culture media used for PAM shift assay) and incubated for 18 h at 37° C. in 5% CO2. Compound dose response curves (12-point) and a separate 30×EC20 GLP-1 (9-36) stock solution were generated in assay buffer (same assay buffer used for PAM shift assay) in presence of 1.5 mM IBMX and 12.5% DMSO. Cells were washed 1× with assay buffer prior to adding 3 μL of compound dose response curve and 0.5 μL EC20 GLP-1 (9-36) to 12 μL assay buffer and incubated for 30 min at 37° C. Direct detection of cAMP was carried out using DiscoveRx HitHunter cAMP kit according to manufacturer's instructions (substituting 5 μL Antibody portion with 2 μL) and luminescence was read using a SpectraMax M5 plate reader. Luminescence signal was converted to total cAMP using a cAMP standard curve and data was analyzed by non-linear regression to determine the EC50 values for cAMP dose response curves.

GLP-1R [2] = assay: Size exclusion chromatography peak shift assay (stability induction on GLP-1R); format: binding; details: relative to apo protein and a positive control; effect on dimer stability
Source text: Generation of GLP-1R Protein Used in the Stability Induction Assay
A synthetic gene for a modified GLP-1R enhanced for expression in insect cells was created using overlap extension PCR to encode the amino acid sequence containing a signal peptide, N-terminal Flag (Sigma) epitope tag, mGLP-1R, GFP and a 10× histidine tag.
This gene product was cloned into the insect cell transfer vector, pFastBac 1 (Invitrogen) for transposition into the baculovirus DNA hosted in the DH10Bac strain E. coli. […] High titer viral stock of the recombinant GLP-1R baculovirus was recovered and used to infect a healthy population of SF9 insect cells for expression under the control of the ^ie1GP64 baculovirus promoter (EMD biosciences).
Recombinant protein was isolated from the membranes of the insect cells by extraction using 1% β-dodecylmaltopyranoside followed by purification using immobilized metal affinity chromatography resin and standard protocols After elution the protein was analyzed by analytical size exclusion chromatography to determine its retention time relative to an unliganded receptor.
Size Exclusion Chromatography Peak Shift Assay—Characterization of Stability Induction for Compounds
The protein's hydrodynamic radius was analyzed on an analytical size exclusion chromatography column (Sepax Zenix SEC-300 250 mm×4.6 mm column) equilibrated with 20 mM Hepes pH 7.5, 500 mM NaCl, 2% v/v glycerol, 0.05% w/v DDM and 0.01% w/v CHS and attached to a Dionex Ultimate HPLC which continuously pumped running buffer at a flow rate of 0.5 mL/min. The HPLC was equipped with an ultraviolet absorption and a fluorescence detector which enabled detection of total protein absorbance and GFP fluorescent emission respectively. The peak profiles of the GLP-1R in the presence of multiple compounds could be determined from impure mixtures using fluorescence detection.
Each tested compound was assayed for its ability to alter the hydrodynamic radius. This change can manifest as either a positive or negative shift in retention time in the peak shift assay. A positive shift represents a decrease in apparent molecular weight of the complex, while a negative shift represents an increase in size. Compounds that result in a negative shift in retention time (i.e. increased size) may do so by destabilizing the receptor or by causing non-specific aggregation. Compounds that result in a positive shift in retention time (i.e. decreased size) may do so either by stabilizing the receptor in a more compact conformation or by disrupting the oligomeric state (e.g. Dimer→monomer transition).
For this assay we reported the relative shift in retention time of each compound with respect to the apo protein (without ligand) and a positive control.

T1 sequence (P43220 24-463): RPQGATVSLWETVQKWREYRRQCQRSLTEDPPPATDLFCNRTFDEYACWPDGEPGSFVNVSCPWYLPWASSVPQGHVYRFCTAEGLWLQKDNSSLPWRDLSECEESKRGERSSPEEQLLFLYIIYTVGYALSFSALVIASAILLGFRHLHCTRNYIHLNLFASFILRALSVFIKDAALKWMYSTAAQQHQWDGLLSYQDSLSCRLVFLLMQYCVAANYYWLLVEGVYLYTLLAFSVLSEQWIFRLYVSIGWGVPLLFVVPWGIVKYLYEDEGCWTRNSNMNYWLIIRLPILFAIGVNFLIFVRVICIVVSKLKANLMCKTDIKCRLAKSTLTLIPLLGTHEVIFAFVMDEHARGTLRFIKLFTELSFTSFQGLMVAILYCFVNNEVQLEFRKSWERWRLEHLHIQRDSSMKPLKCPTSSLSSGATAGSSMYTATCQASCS
T1 sequence (P01275 100-127 partner limits assumed): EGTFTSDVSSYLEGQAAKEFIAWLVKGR

Structure (SMILES) | EC50 (GLP-1R [1]) [µM] | EC20 GLP-1 (9-36) PAM max cAMP (GLP-1R [1]) [µM] | PEAK SHIFT ASSAY (relative shift in retention time, normalized 0 to 5 positive, −5 to 0 negative) (GLP-1R [2])
CCCCCCCOc1ccc(C(=O)Oc2ccc(CC(NC(=O)c3ccc(OC)cc3)C(=O)O)cc2OC)cc1 (stereo not shown) [Compound 2, 3-(4-((4-(heptyloxy)benzoyl)oxy)-3-methoxyphenyl)-2-(4-methoxybenzamido)propanoic acid] | > 20 | 0.189 | 
CCCCCCCOc1ccc(C(=O)Oc2ccc(C[C@H](NC(=O)c3ccc(C(C)(C)C)cc3)C(=O)O)cc2)cc1 [Compound 57, (S)-2-(4-(tert-butyl)benzamido)-3-(4-((4-(heptyloxy)benzoyl)oxy)phenyl)propanoic acid] | 3.67 | 0.237 | 
CCCCCCCOc1ccc(C(=O)Oc2ccc(C[C@H](NC(=O)c3ccc(OC)cc3)C(=O)O)cc2)cc1 [Compound 63] | > 10 | 0.072 | 
CCCCCCCOc1ccc(C(=O)Oc2ccc(CC(NC(=O)c3ccc(NC(=O)COCc4ccccc4)cc3)C(=O)O)cc2OC)cc1 (stereo not shown) [Compound 103, 2-(4-(2-(benzyloxy)acetamido)benzamido)-3-(4-((4-(heptyloxy)benzoyl)oxy)-3-methoxyphenyl)propanoic acid] | 5.49 | 0.204 | 
CCCCCCCOc1ccc(C(=O)Oc2ccc(CC(NC(=O)c3ccc(NC(=O)Cc4ccc(OC)cc4)cc3)C(=O)O)cc2OC)cc1 (stereo not shown) [Compound 120, 3-(4-((4-(heptyloxy)benzoyl)oxy)-3-methoxyphenyl)-2-(4-(2-(4-methoxyphenyl)acetamido)benzamido)propanoic acid] | 4.05 | 0.174 | 
CCCCCCCOc1ccc(C(=O)Oc2ccc(C[C@H](NC(=O)c3ccc(NC(=O)Cc4ccc(OC)cc4)cc3)C(=O)O)cc2)cc1 [Compound 178, (S)-3-(4-((4-(heptyloxy)benzoyl)oxy)phenyl)-2-(4-(2-(4-methoxyphenyl)acetamido)benzamido)propanoic acid] | 6.31 | 0.098 | 
CCCCCCCOc1ccc(C(=O)Oc2ccc(C[C@H](NC(=O)c3ccc(NC(=O)COCc4ccccc4)cc3)C(=O)O)cc2)cc1 [Compound 179, (S)-2-(4-(2-(benzyloxy)acetamido)benzamido)-3-(4-((4-(heptyloxy)benzoyl)oxy)phenyl)propanoic acid] | 4.84 | 0.16 | 
CCCCCCCOc1ccc(C(=O)Oc2ccc([C@H](NC(=O)c3ccc(NC(=O)Cc4ccc(OC)cc4)cc3)C(=O)O)cc2)cc1 [Compound 263, (S)-2-(4-((4-(heptyloxy)benzoyl)oxy)phenyl)-2-(4-(2-(4-methoxyphenyl)acetamido)benzamido)acetic acid] | 2.78 | 0.216 | 
COc1cc(CC(NC(=O)c2ccc(NC(=O)C3CCCC3)cc2)C(=O)O)ccc1OC(=O)c1ccccc1 (stereo not shown) [Compound 266] |  |  | 0.88
COc1cc(CC(NC(=O)c2ccc(NC(=O)C3CCCC3)cc2)C(=O)O)ccc1OC(=O)c1ccccc1OC(C)=O (stereo not shown) [Compound 267] |  |  | 0.25
COc1ccc(C(=O)Oc2ccc(CC(NC(=O)c3ccc(NC(=O)C4CCCC4)cc3)C(=O)O)cc2OC)cc1 (stereo not shown) [Compound 268] |  |  | 0.46
COc1cc(CC(NC(=O)c2ccc(NC(=O)C3CCCC3)cc2)C(=O)O)ccc1OC(=O)c1ccc(C#N)cc1 (stereo not shown) [Compound 269] |  |  | 0.34
COc1cc(CC(NC(=O)c2ccc(NC(=O)C3CCCC3)cc2)C(=O)O)ccc1OC(=O)c1ccccc1COC(=O)c1ccccc1 (stereo not shown) [Compound 270] |  |  | 0
CCCN(CCC)S(=O)(=O)c1ccc(C(=O)Oc2ccc(CC(NC(=O)c3ccc(NC(=O)C4CCCC4)cc3)C(=O)O)cc2OC)cc1 (stereo not shown) [Compound 271] |  |  | 0.52
COc1cc(CC(NC(=O)c2ccc(NC(=O)C3CCCC3)cc2)C(=O)O)ccc1OC(=O)c1ccc(NC(=O)C2CCCC2)cc1 (stereo not shown) [Compound 272] |  |  | −1.15
CCCCCCCOc1ccc(C(=O)Oc2ccc(CC(NC(=O)c3ccc(NC(=O)C4CCCC4)cc3)C(=O)O)cc2OC)cc1 (stereo not shown) [Compound 273, 2-(4-(cyclopentanecarboxamido)benzamido)-3-(4-((4-(heptyloxy)benzoyl)oxy)-3-methoxyphenyl)propanoic acid] | > 10 | 0.027 | 0.69
COc1cc(CC(NC(=O)c2ccc(NC(=O)C3CCCC3)cc2)C(=O)O)ccc1OC(=O)c1ccc(NC(C)=O)cc1 (stereo not shown) [Compound 274, 3-(4-((4-acetamidobenzoyl)oxy)-3-methoxyphenyl)-2-(4-(cyclopentanecarboxamido)benzamido)propanoic acid] |  |  | 0.83
COc1cc(CC(NC(=O)c2ccc(NC(=O)C3CCCC3)cc2)C(=O)O)ccc1OC(=O)c1ccc(-c2ccccc2)cc1 (stereo not shown) [Compound 275] |  |  | 0
